In patent US9707220B2 (The United States of America, as represented by the …, priority 2005, dated 2017):
Values joined by “and” are separate entries in the source; they are usually repeats but may differ in a detail not shown here. Equal values may be shown once. Marks after values point to notes of the source that are not given here.

What was measured:
Format in all cases: in vivo, human
[1] = system: unmedicated, currently depressed patients meeting criteria for Major Depressive Disorder (MDD) or Bipolar Disorder (BD); experiment: Example 1: double-blind randomized dose-finding study, 15-minute intravenous scopolamine infusions, MADRS depression severity in patients; set-up: key to MADRS score, Follow-up / MADRS score, Session 3, Pt. MEAN / MADRS score, Session 4, Pt. MEAN / MADRS score, Follow-up, Pt. MEAN / MADRS score, Post 2 μg/kg / MADRS score, Post 3 μg/kg / MADRS score, Post 4 μg/kg / MADRS score, Post 2 μg/kg, MEAN / MADRS score, Post 3 μg/kg, MEAN: Montgomery & Asberg Depression Rating Scale (MADRS) total score
Protocol: Prior to each infusion, a psychiatric interview was performed using the Montgomery & Asberg Depression Rating Scale (MADRS) to monitor depression severity across sessions. Participants were monitored continuously for the development of clinically relevant side effects. Sessions were scheduled a minimum of 3 days apart and a maximum of 5 days apart when possible. Follow-up psychiatric interviews were obtained when patients were available.
Comparisons also were made between MADRS scores obtained before and after each specific dose. […] Post evaluations for the last session were provided by the follow-up psychiatric interviews when available.

[2] = system: unmedicated, currently depressed patients meeting the DSM-IV criteria for Major Depressive Disorder (MDD) or Bipolar Disorder (BD); experiment: Example 2: double-blind, placebo-controlled, randomized cross-over study, MADRS depression severity
Text: (§1) Session one was designed to be single-blind during which all subjects received a placebo infusion to allow for a baseline evaluation. The next six sessions were separated into two blocks of three sessions each; one block included a series of three placebo infusions (P Block) and the other a series of three scopolamine infusions (S Block). Individuals were randomized into either the P/S (placebo/scopolamine) series or the S/P (scopolamine/placebo) series, using a double-blind design. In total, all subjects received four placebo infusions and three scopolamine infusions. Prior to infusion, unstructured psychiatric interviews were completed using the Montgomery & Asberg Depression Rating Scale (MADRS) and the Hamilton Anxiety Scale to provide evaluations of depression and anxiety severity upon entering the study (i.e., baseline 1); following the first infusion as an assessment of placebo effects (i.e., baseline 2); after all infusions associated with block 1 (i.e., last evaluation block 1); and after all infusions associated with block 2 (i.e., last evaluation block 2) obtained during a follow-up psychiatric interview. Sessions were scheduled a minimum of 3 days apart and a maximum of 5 days apart when possible.
(§2) Patient diagnosis and features that contribute to prognosis, including history of response to conventional treatment, chronicity and comorbid anxiety disorders, are summarized in Table III.
(§3) Session one was designed to be single-blind during which all subjects received a placebo infusion to allow for a baseline evaluation in all subjects. Subsequently, individuals were randomized into either an P/S or S/P double-blind design whereby P is defined as a series of three sessions during which participants received placebo and S is defined as a series of three sessions during which participants received scopolamine. […] Prior to each infusion, unstructured psychiatric interviews were completed using the MADRS and the Hamilton Anxiety Scale. Sessions were scheduled a minimum of 3 days apart and a maximum of 5 days apart when possible. Follow-up psychiatric interviews were obtained to assess the effects of session seven. […] Repeated measures ANOVA was used to evaluate session differences, group differences and session X group effects. In the presence of significant ANOVA results, t-tests were used for within and between group comparisons to identify specific effects.

[3] = system: unmedicated, currently depressed patients meeting the DSM-IV criteria for Major Depressive Disorder (MDD) or Bipolar Disorder (BD); experiment: Example 2: double-blind, placebo-controlled, randomized cross-over study, Hamilton Anxiety Scale
Text: as §1, §2, §3

[4] = 4.0 μg/kg iv, three infusions, p<0.005
[5] = both treatment groups, no change following placebo

For `CN1C2C[C@H](OC(=O)C(CO)c3ccccc3)CC1[C@H]1OC21` (stereo partly shown) [scopolamine], the “MADRS score, Follow-up” value ([1]; individual patient, follow-up interview after all four sessions) was 37 and 16 and 2 and 9 and 14, the “MADRS score, Session 2” value ([1]; individual patient, scored before the Session 2 infusion, after the Session 1 dose, iv 2, 3 or 4 μg/kg or placebo in random order, sessions 3-5 days apart) was 36^d and 44^a and 25^a and 32^C and 18^b and 29^C and 15^d and the “MADRS score, Session 3” value ([1]; individual patient, scored before the Session 3 infusion, after two earlier sessions, doses in random order) was 35^b and 34^d and 31^b and 4^C and 25^a and 14^a and 22^d and 7^a. The “MADRS score, Session 4” value ([1]; individual patient, scored before the Session 4 infusion, after three earlier sessions, doses in random order) was 35^a and 22^b and 32^d and 8^d and 28^d and 11^d and 17^a and 7^b, the “MADRS score, Post 2 μg/kg” value ([1]; individual patient, scored in the next session, 3 to 5 days after 2 μg/kg iv) was 37 and 32 (2×) and 4 and 14 and 29 and 35 and the “MADRS score, Post 3 μg/kg” value ([1]; individual patient, scored in the next session, 3 to 5 days after 3 μg/kg iv) was 44 and 25 (2×) and 8 and 18 and 22 and 15 and 36. For the same compound, the “MADRS score, Post 4 μg/kg” value ([1]; individual patient, scored in the next session, 3 to 5 days after 4 μg/kg iv) was 22 and 16 and 2 and 9 and 14 and 17 and 7 and 35, the “MADRS score, Session 3, Pt. MEAN” value ([1]; mean of 8 patients, irrespective of session dose) was 21.5 and the “MADRS score, Session 4, Pt. MEAN” value ([1]; mean of 8 patients, irrespective of session dose, significantly less than baseline, p < 0.05) was 20.0*. The “MADRS score, Follow-up, Pt. MEAN” value ([1]; mean of patients with follow-up, significantly less than baseline, p < 0.05) was 15.6*, the “MADRS scores post 4.0 μg/kg compared to baseline and pre-4.0 μg/kg measures” value ([1]; p=0.0015 vs baseline, p=0.018 vs pre-dose) was “significantly lower” and the “MADRS scores following session four compared to session one baseline” value ([1]; patient group, post-hoc t-test, p=0.01) was “significantly lower”. For the same compound, the “MADRS scores following session three compared to session one baseline” value ([1]; patient group, post-hoc t-test, p=0.03) was “significantly lower”, the “Antidepressant effect, MADRS across sessions (summary)” value ([1]; patient group, effect primarily after the 4.0 μg/kg dose) was “robust and rapid antidepressant effects” and the “MADRS score, Post 2 μg/kg, MEAN” value ([1]; patient mean, baseline mean 29.00, pre-dose mean 22.38) was 26.14. For the same compound, the “MADRS score, Post 4 μg/kg, MEAN” value ([1]; patient mean, baseline mean 29.00, pre-dose mean 23.25, p = 0.0015 vs baseline, p = 0.018 vs pre-session) was 15.25^#*, the “MADRS score, Post 3 μg/kg, MEAN” value ([1]; patient mean, baseline mean 29.00, pre-dose mean 27.63) was 24.13 and the “MADRS scores post 2.0 and 3.0 μg/kg compared to baseline and pre-dose” value ([1]; t-tests, patient group) was “No other differences were significant”. The “MADRS depression severity, P/S group at end of Block 2 (scopolamine) vs baseline measures and end of Block 1” value [2, 4] was “significantly lower”, the “MADRS depression severity, S/P group at end of Block 1 (scopolamine) vs baseline 1 and baseline 2” value [2, 4] was “significantly lower” and the “MADRS depression severity, S/P group vs P/S group at last evaluation of Block 1” value ([2]; 4.0 μg/kg iv, three infusions, t=5.3, p<0.0001) was “significantly lower”. For the same compound, the “Depressive symptoms (mean MADRS scores, FIG. 2) following treatment” value [2, 5] was “significant improvement”, the “MADRS depression severity, S/P group at end of Block 2 (placebo after scopolamine) vs baseline measures” value ([2]; persistence of effect, p<0.005) was “significantly lower” and the “Hamilton Anxiety rating, P/S group at end of Block 2 (scopolamine) vs baseline 1, baseline 2 and end of Block 1” value ([3]; 4.0 μg/kg iv, three infusions, p<0.001, p=0.02, p=0.002) was “significantly lower”. The “Hamilton Anxiety rating, S/P group at end of Block 1 (scopolamine) vs baseline measures” value ([3]; 4.0 μg/kg iv, three infusions, p<0.01) was “significantly lower”, the “Hamilton Anxiety score, S/P group vs P/S group at last evaluation of Block 1” value ([3]; 4.0 μg/kg iv, three infusions, t=7.29, p=0.04) was “significantly lower” and the “Anxiety symptoms (mean Hamilton Anxiety scores, FIG. 3) following treatment” value [3, 5] was “significant improvement”. The “Hamilton Anxiety rating, S/P group at end of Block 2 (placebo after scopolamine) vs baseline” value ([3]; persistence of effect, p=0.01) was “significantly lower”.
